Data taken from PubChem BioAssay (NCI).
Several values for one entry are separate records, joined by “and”; a condition that tells them apart may be missing. Equal values may be shown once.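 Compound exposure: 48 hours, 5 concentrations, 96-well plates. GI50 is the concentration that inhibits growth by half. TGI is the concentration that stops growth completely.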

Legend:
Experiment in all cases: growth of human tumour cells (NCI), 48 h
K-562 leukemia = tested on: K-562 leukemia
SK-OV-3 ovarian = tested on: SK-OV-3 ovarian
MCF7 breast = tested on: MCF7 breast
UACC-62 melanoma = tested on: UACC-62 melanoma
SNB-75 CNS = tested on: SNB-75 CNS
NCI-H23 lung = tested on: NCI-H23 lung
OVCAR-5 ovarian = tested on: OVCAR-5 ovarian
UACC-257 melanoma = tested on: UACC-257 melanoma
SR leukemia = tested on: SR leukemia
MDA-MB-231 breast = tested on: MDA-MB-231 breast

Compound | GI50 (K-562 leukemia) [µM] | TGI (K-562 leukemia) [µM] | GI50 (SK-OV-3 ovarian) [µM] | TGI (SK-OV-3 ovarian) | GI50 (MCF7 breast) [µM] | TGI (MCF7 breast) | GI50 (UACC-62 melanoma) [µM] | TGI (UACC-62 melanoma) | GI50 (SNB-75 CNS) [µM] | TGI (SNB-75 CNS) | GI50 (NCI-H23 lung) [µM] | TGI (NCI-H23 lung) | GI50 (OVCAR-5 ovarian) [µM] | TGI (OVCAR-5 ovarian) | GI50 (UACC-257 melanoma) [µM] | TGI (UACC-257 melanoma) | GI50 (SR leukemia) [µM] | TGI (SR leukemia) [µM] | GI50 (MDA-MB-231 breast) [µM] | TGI (MDA-MB-231 breast)
C[C@@H]1CC[C@@H]2[C@@H]1[C@H](OC(=O)/C=C/c1ccccc1)[C@]1(C3CCCCC3)C[C@@H](NC(=O)CO)[C@@]2(C)O1 | 21.1 | 45.1 | 17.9 | 32.1 µM | 14.4 | 32.7 µM | 16.2 | 30.3 µM | 12.6 | 26.9 µM | 18.9 | 38.4 µM | 16.2 | 30.8 µM | 25.2 | 42.1 µM | 19.8 | 41.2 | 18.9 | 35.4 µM
Cc1cnc(/C=N\NC(N)=S)c2cccc(N)c12 | 2.82 | > 100 | 3.14 | > 100 µM | 1.5 | > 100 µM | 1.13 | 9.26 µM and 6.67 µM | 1.35 | > 27 µM and 9.48 µM | 2.14 | > 100 µM | > 21.3 | > 100 µM | 4.81 | > 38.8 µM | 0.587 | – | 3.2 | > 100 µM
CC(C)(C#N)c1cc(F)cc(C(=O)Nc2cc(Nc3ncccc3-c3ncnc4nc[nH]c34)ccc2F)c1 | 0.606 | > 10 | > 10 | > 10 µM | 8.73 | > 10 µM | 0.0841 | > 10 µM | 3.31 | > 10 µM | 0.501 | > 10 µM | 0.451 | > 10 µM | – | – | 7.31 | > 10 | 0.306 | 4.8 µM
O=C1c2ccccc2C(=Cc2ccccc2)c2ccccc21 | 0.673 | 16 | 2.54 | 9.05 µM | 1.44 | 12 µM | 1.68 | 10.3 µM | 2.34 | 7.45 µM | 2.59 | 14.1 µM | 5.04 | 16.9 µM | 5.22 | 23.9 µM | 0.871 | 18.3 | 2.78 | 35.9 µM
COc1cc2nccc(Oc3ccc(NC(=O)C4(C(=O)Nc5ccc(F)cc5)CC4)cc3)c2cc1Oc1ccc(N)cn1 | 0.9 | > 100 | 3.52 | > 100 µM | 2.28 | > 100 µM | 1.33 | 7.03 µM | 1.41 | 4.21 µM | 2.57 | > 100 µM | 2.49 | 39 µM | 2.74 | 51.3 µM | 3.25 | > 100 | 2.44 | 8.42 µM
CC(=O)O[C@H](C[C@H](C(C)C)N(C)C(=O)[C@@H](NC(=O)[C@H]1CCCCN1C)C(C)C)c1nc(C(=O)N[C@@H](Cc2ccccc2)C[C@H](C)C(=O)O)c(C(C)C)s1 | < 0.00333 | > 33.3 | < 0.00333 | > 33.3 µM | < 0.00333 | > 33.3 µM | < 0.00333 | > 33.3 µM | < 0.00333 | 29.1 µM | < 0.00333 | > 33.3 µM | 0.0176 | > 33.3 µM | > 33.3 | > 33.3 µM | < 0.00333 | > 33.3 | < 0.00333 | > 15.5 µM
O=S(=O)(O)c1ccc(-c2nnc(-c3ccccn3)nc2-c2ccc(S(=O)(=O)O)o2)o1 | – | > 100 | – | > 100 µM | – | > 100 µM | – | > 100 µM | – | > 100 µM | – | > 100 µM | – | > 100 µM | – | – | – | > 100 | – | > 100 µM
COc1ccc2c(c1)C(=O)C(=O)c1cc(O)c(OC)c(OC)c1-2 | – | 3.01 | 1.79 | 7.27 µM and 3.17 µM | 1.96 | 1.74 µM and 3.59 µM | 1.76 | 1.54 µM and 3.16 µM | 1.69 | 2.85 µM and 3.06 µM | 1.77 | 1.77 µM and 4.23 µM | 1.65 | 2.42 µM and 3.13 µM | 1.55 | 1.61 µM and 2.89 µM | – | 6.39 | 2.1 | 1.91 µM and 3.87 µM
O=C(CF)N(O)c1ccc(/C=C/c2ccccc2)cc1 | 7.92 | > 100 | 7.53 | 32.1 µM | 0.304 | > 100 µM | 1.81 | 10.7 µM | 3.41 | 31.9 µM | 3.39 | 98.4 µM | 8.26 | > 100 µM | 1.67 | 5.59 µM | 0.257 | 4.04 | 21.8 | > 100 µM
O=C(Nc1cccc(Oc2nnc(Cl)c3ccccc23)c1)Nc1ccc(Cl)c(C(F)(F)F)c1 | 0.63 | 4.27 | 2.66 | 6.7 µM | 0.571 | 3.03 µM | – | – | 1.61 | 5.63 µM | 0.907 | 4.36 µM | 1.24 | 4.26 µM | 0.952 | 3.37 µM | 0.321 | 1.42 | 0.358 | 2.44 µM
CC(=O)OCC(=O)O[C@@H]1C[C@]2(C(C)C)O[C@@]1(C)[C@@H]1CC[C@@H](C)[C@H]1[C@@H]2OC(=O)/C=C/c1ccccc1 | 17.2 | > 100 | 24.5 | > 97.2 µM | 22.6 | > 100 µM | 14.1 | 38.3 µM | 13.2 | 58.4 µM | 23.7 | 99.1 µM | 15.5 | 33.6 µM | 23.6 | 87.4 µM | 12.2 | > 95.9 | 14 | 33.4 µM
Cc1cc(C2=NNC(=O)Cc3cc4c(cc32)OCCO4)cc(C)c1N | – | – | 2.44 | 23.6 µM | 1.13 | > 100 µM | 3.59 | > 100 µM | 1.25 | 4.32 µM | 2.89 | > 100 µM | 8.02 | > 100 µM | – | – | 0.31 | > 100 | 6.25 | > 100 µM
Oc1c(CN2CCCC2)cc(COCc2ccc(Br)cc2)c2cccnc12 | 0.397 | 10.3 | 0.594 | 2.84 µM | 0.316 | 1.37 µM | 0.343 | 1.72 µM | 1.33 | 11.7 µM | 0.969 | 3.33 µM | 2.87 | 13.6 µM | 1.34 | 3.02 µM | 0.365 | 2.23 | 0.851 | 2.37 µM
O=C(Nc1ccc(CN2CCOCC2)cc1)c1[nH]ncc1Nc1ncnc2sccc12 | 0.402 | > 100 | 0.103 | > 100 µM | 0.265 | > 100 µM | 0.707 | 5.7 µM | 0.0174 | 2.04 µM | 0.358 | 2.49 µM | 0.904 | > 100 µM | 1.96 | 25.2 µM | 0.261 | 0.989 | 0.854 | > 100 µM
O=C(O)CCC(=O)c1ccc2ccc3cccc4ccc1c2c34 | – | > 100 | – | > 100 µM | – | > 100 µM | – | > 100 µM | – | > 100 µM | – | > 100 µM | – | > 100 µM | – | > 100 µM | – | > 100 | – | > 100 µM
CC1CCN(CCCCCOc2ccc3oc4cc(Cl)ccc4c(=O)c3c2)CC1 | 1.58 | 6.09 | 8.45 | 15.8 µM | 5.9 | 14.2 µM | 2.24 | 7.73 µM | 6.59 | 13 µM | 7.36 | 14.6 µM | 6.63 | 13.5 µM | 1.33 | 3.22 µM | 1.41 | 5.18 | 7.6 | 14.6 µM
CN(C)c1ncnc2c1nnn2C1OC(CO)C(O)C1O (stereo not drawn) | 0.0973 | > 100 | 0.0413 | 22.5 µM | 0.216 | > 23.4 µM | 0.246 | 1.55 µM | 0.106 | > 100 µM | 0.399 | > 63.2 µM | 2.97 | > 100 µM | 0.515 | > 100 µM | 0.393 | 7.64 | 0.524 | > 100 µM
Cn1cc(C2=C(c3cccnc3)C(=O)NC2=O)c2ccccc21 | > 25 | > 25 | > 22.9 | > 25 µM | 8.45 | > 25 µM | > 25 | > 25 µM | 0.882 | > 25 µM | > 25 | > 25 µM | > 25 | > 25 µM | > 25 | > 25 µM | 15.5 | > 25 | > 23.8 | > 25 µM
COc1ccc(C2=NN(C(=O)c3cc(OC)c(OC)c(OC)c3)C(c3ccc(Cl)cc3)C2)cc1OC (stereo not drawn) | 0.777 | > 100 | 2.89 | 27.4 µM | 0.398 | 14.7 µM | 0.549 | 15.5 µM | 0.746 | 15.2 µM | 5.78 | > 90.1 µM | 76.5 | > 100 µM | 8.6 | 77.8 µM | 0.448 | > 100 | 2.27 | > 68.3 µM
CN(C)c1ccc(/C=C2\N=C(c3ccc([N+](=O)[O-])cc3)OC2=O)cc1 | – | > 100 | – | > 100 µM | – | > 100 µM | – | > 100 µM | – | > 100 µM | – | > 100 µM | – | > 100 µM | – | > 100 µM | – | 86.9 | – | > 100 µM
COC(=O)[C@]12CC[C@@H](C)[C@H](C)[C@@H]1C1=CC[C@@H]3[C@@]4(C)C(C=O)=C[C@@](C)(COC(=O)c5ccco5)[C@@H]4C(=O)C[C@@]3(C)[C@]1(C)CC2 | 3.95 | > 100 | 43.1 | > 100 µM | 4.07 | 44.2 µM | 0.232 | 2.34 µM | 4.24 | > 100 µM | 4.33 | > 100 µM | 68.8 | > 100 µM | 0.148 | 0.666 µM | 3.12 | 39.4 | 4.97 | > 100 µM
CC/C=C\C/C=C\C[C@H](O)C/C=C1/C(=O)C=C[C@@H]1C/C=C\CCCC(=O)O | 3.17 | > 100 | 16 | 34.7 µM | 2.96 | 18.5 µM | 1.94 | 8.02 µM | 10.4 | 28.6 µM | 4.09 | 17.1 µM | 7.22 | 30 µM | 5.35 | 19.2 µM | 2.46 | 16.7 | 7.94 | 44.4 µM
CNC(=O)c1ccc2cc(C3(O)CCn4cncc43)ccc2c1 (stereo not drawn) | > 100 | > 100 | > 100 | > 100 µM | > 100 | > 100 µM | > 100 | > 100 µM | > 100 | > 100 µM | > 100 | > 100 µM | > 100 | > 100 µM | > 100 | > 100 µM | > 100 | > 100 | > 100 | > 100 µM
O=C(CN1CCN(c2ccc(Cl)cc2)CC1)N1CCN(c2nnc(-c3ccc(Cl)cc3)c(-c3ccc(Cl)cc3)n2)CC1 | > 100 | > 100 | 33.9 | > 100 µM | 8.9 | > 100 µM | – | – | 15.1 | 35.5 µM | 48 | > 100 µM | > 100 | > 100 µM | > 100 | > 100 µM | 10.1 | 53.9 | 50.8 | > 100 µM
C=CC[P+](c1ccccc1)(c1ccccc1)c1ccccc1 | 2.12 | > 100 | 19.2 | > 100 µM | 2.84 | > 100 µM | 2.69 | > 100 µM | 3.58 | 57.9 µM | – | – | 13.4 | > 100 µM | 0.877 | 6.66 µM | 1.45 | > 100 | 7.61 | > 100 µM
C/C(=N\N=C(\[Se])N1CCN(c2ccccn2)CC1)c1ccccn1 | 0.00114 | – | – | 9.82 µM | 0.00278 | 14.3 µM | – | – | – | 17.5 µM | 0.023 | 21.8 µM | 0.00643 | 21.8 µM | 0.0047 | 12.8 µM | 4.17 | 54.4 | – | 17.5 µM
